Test results from ChEMBL document CHEMBL1909046, “DrugMatrix in vitro pharmacology data”.

Key:
[1] = DRUGMATRIX: Sodium/nucleoside co-transporter radioligand binding (ligand: nitrobenzylthioinosine); type: cell membranes, Cavia porcellus, Dunkin-Hartley, Cerebral cortex, Membrane; details: Not Active = under 50% inhibition at 10 µM
Adenosine receptor A1 = target: T1, Adenosine receptor A1 (Homo sapiens, UniProt P30542); type: cell membranes, CHO, Membrane; details: cho;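 also: radioligand binding assay at the adenosine A1 receptor, with DPCPX serving as the labelled ligand; in other assays of this panel Not Active means under 50% inhibition at 10 µM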
T1 sequence (P30542 whole entry): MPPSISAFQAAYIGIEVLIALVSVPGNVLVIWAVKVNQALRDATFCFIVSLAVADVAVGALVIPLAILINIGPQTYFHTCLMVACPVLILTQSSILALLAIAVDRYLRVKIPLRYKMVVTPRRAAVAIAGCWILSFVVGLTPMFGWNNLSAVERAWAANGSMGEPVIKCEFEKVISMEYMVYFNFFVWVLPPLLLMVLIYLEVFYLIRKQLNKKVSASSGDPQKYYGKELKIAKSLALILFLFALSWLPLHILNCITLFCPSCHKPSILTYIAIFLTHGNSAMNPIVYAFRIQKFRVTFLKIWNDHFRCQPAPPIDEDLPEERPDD

Mu-type opioid receptor = Mu-type opioid receptor (Homo sapiens, UniProt P35372); experiment: DRUGMATRIX: Opiate mu (OP3, MOP) radioligand binding (ligand: [3H] Diprenorphine); type: cell membranes, CHO-K1, Membrane; details: cho-k1; Not Active = under 50% inhibition at 10 µM
[2] = target: T2, Polyunsaturated fatty acid lipoxygenase ALOX15 (Oryctolagus cuniculus, UniProt P12530); experiment: biochemical; type: tissue-based, Reticulocytes; details: reticulocytes;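 also: inhibition of 15-lipoxygenase enzyme activity measured with linoleic acid as the substrate; in other assays of this panel Not Active means under 50% inhibition at 10 µM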
T2 sequence (P12530 whole entry): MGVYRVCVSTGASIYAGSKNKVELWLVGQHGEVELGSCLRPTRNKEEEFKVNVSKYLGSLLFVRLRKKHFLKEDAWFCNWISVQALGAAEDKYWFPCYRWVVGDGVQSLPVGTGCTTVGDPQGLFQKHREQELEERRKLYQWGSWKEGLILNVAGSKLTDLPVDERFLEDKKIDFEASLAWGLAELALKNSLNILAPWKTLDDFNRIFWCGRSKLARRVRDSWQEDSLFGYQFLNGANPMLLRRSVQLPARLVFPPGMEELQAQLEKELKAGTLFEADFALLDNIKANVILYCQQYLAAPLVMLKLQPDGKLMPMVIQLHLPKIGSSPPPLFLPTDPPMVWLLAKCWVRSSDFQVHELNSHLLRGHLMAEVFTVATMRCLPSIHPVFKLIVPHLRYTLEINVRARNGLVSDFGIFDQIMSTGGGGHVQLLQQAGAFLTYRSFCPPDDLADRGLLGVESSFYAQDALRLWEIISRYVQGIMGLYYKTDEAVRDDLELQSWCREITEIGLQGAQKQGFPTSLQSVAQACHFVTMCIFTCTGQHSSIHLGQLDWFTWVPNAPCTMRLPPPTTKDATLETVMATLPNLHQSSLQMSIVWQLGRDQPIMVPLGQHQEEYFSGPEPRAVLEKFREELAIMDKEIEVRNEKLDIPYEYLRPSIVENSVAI

[3] = target: T3, C-C chemokine receptor type 4 (Homo sapiens, UniProt P51679); type: cell membranes, Membrane; details: chem-1; also: in other assays of this panel Not Active means under 50% inhibition at 10 µM
T3 sequence (P51679 whole entry): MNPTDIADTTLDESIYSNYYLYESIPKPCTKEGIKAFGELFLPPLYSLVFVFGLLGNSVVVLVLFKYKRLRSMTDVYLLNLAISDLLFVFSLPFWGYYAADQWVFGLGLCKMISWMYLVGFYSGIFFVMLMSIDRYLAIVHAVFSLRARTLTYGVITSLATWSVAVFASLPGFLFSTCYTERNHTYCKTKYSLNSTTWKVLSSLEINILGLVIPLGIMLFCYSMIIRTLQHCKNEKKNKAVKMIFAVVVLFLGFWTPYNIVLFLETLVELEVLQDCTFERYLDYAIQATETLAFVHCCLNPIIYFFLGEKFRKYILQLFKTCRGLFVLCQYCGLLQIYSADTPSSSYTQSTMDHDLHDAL

D(1A) dopamine receptor = D(1A) dopamine receptor (Homo sapiens, UniProt P21728); experiment: DRUGMATRIX: Dopamine D1 radioligand binding (ligand: [3H] SCH-23390); type: cell membranes, CHO, Membrane; details: cho; Not Active = under 50% inhibition at 10 µM
D(1A) dopamine receptor, sequence (P21728 whole entry): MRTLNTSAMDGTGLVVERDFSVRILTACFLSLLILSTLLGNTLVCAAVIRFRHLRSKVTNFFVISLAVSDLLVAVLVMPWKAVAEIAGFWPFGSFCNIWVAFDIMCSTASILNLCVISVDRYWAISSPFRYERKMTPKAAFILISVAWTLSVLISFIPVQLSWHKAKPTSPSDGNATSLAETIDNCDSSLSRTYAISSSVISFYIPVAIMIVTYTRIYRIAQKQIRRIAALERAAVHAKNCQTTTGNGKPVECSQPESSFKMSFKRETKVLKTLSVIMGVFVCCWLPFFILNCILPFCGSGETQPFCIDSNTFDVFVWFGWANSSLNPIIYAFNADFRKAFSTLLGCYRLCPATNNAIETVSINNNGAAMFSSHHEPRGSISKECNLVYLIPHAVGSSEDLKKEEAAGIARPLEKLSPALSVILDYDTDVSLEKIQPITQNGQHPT

Mu-type opioid receptor, sequence (P35372 whole entry): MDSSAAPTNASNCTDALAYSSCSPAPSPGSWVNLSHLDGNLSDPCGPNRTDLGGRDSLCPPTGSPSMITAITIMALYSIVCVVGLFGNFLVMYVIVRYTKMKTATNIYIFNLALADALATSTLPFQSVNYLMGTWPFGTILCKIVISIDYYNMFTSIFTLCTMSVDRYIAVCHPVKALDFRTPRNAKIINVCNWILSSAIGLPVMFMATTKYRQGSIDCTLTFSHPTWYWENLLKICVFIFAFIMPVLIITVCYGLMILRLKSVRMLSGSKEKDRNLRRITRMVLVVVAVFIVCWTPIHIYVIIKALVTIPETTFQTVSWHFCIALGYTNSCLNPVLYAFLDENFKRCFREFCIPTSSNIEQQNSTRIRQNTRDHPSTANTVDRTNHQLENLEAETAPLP

CC(C)c1c(C(=O)Nc2ccccc2)c(-c2ccccc2)c(-c2ccc(F)cc2)n1CC[C@@H](O)C[C@@H](O)CC(=O)O [ATORVASTATIN]
Not Active: IC50 [1] | Ki [1] | IC50 (Adenosine receptor A1) | IC50 (Mu-type opioid receptor) | IC50 [2] | IC50 [3] | IC50 (D(1A) dopamine receptor)

CC(=O)OC[C@H]1O[C@@H](n2ncc(=O)[nH]c2=O)[C@H](OC(C)=O)[C@@H]1OC(C)=O [AZARIBINE]
Not Active: IC50 [1] | Ki [1] | IC50 (Adenosine receptor A1) | IC50 (Mu-type opioid receptor) | IC50 [2] | IC50 [3] | IC50 (D(1A) dopamine receptor)

C[C@H]1[C@H](NC(=O)/C(=N\OC(C)(C)C(=O)O)c2csc(N)n2)C(=O)N1S(=O)(=O)O [AZTREONAM]
Not Active: IC50 [1] | Ki [1] | IC50 (Adenosine receptor A1) | IC50 (Mu-type opioid receptor) | IC50 [2] | IC50 [3] | IC50 (D(1A) dopamine receptor)

O=C(O)CCNC(=O)c1ccc(/N=N/c2ccc(O)c(C(=O)O)c2)cc1 [BALSALAZIDE]
Not Active: IC50 [1] | Ki [1] | IC50 (Adenosine receptor A1) | IC50 (Mu-type opioid receptor) | IC50 [2] | IC50 [3] | IC50 (D(1A) dopamine receptor)

COc1cc(OC)c(C(=O)CCCN2CCCC2)c(OC)c1 [BUFLOMEDIL]
Not Active: IC50 [1] | Ki [1] | IC50 (Adenosine receptor A1) | IC50 (Mu-type opioid receptor) | IC50 [2] | IC50 [3] | IC50 (D(1A) dopamine receptor)

Cn1c(=O)c2c(ncn2C)n(C)c1=O [CAFFEINE]
Not Active: IC50 [1] | Ki [1] | IC50 (Mu-type opioid receptor) | IC50 [2] | IC50 [3] | IC50 (D(1A) dopamine receptor)

ClC(Cl)(Cl)Cl [CARBON TETRACHLORIDE]
Not Active: IC50 [1] | Ki [1] | IC50 (Adenosine receptor A1) | IC50 (Mu-type opioid receptor) | IC50 [2] | IC50 [3] | IC50 (D(1A) dopamine receptor)

CO/N=C(\C(=O)N[C@@H]1C(=O)N2C(C(=O)O)=C(COC(C)=O)CS[C@H]12)c1csc(N)n1 [CEFOTAXIME]
Not Active: IC50 [1] | Ki [1] | IC50 (Adenosine receptor A1) | IC50 (Mu-type opioid receptor) | IC50 [2] | IC50 [3] | IC50 (D(1A) dopamine receptor)

CNC1=Nc2ccc(Cl)cc2C(c2ccccc2)=[N+]([O-])C1 [CHLORDIAZEPOXIDE]
Not Active: IC50 [1] | Ki [1] | IC50 (Adenosine receptor A1) | IC50 (Mu-type opioid receptor) | IC50 [2] | IC50 [3] | IC50 (D(1A) dopamine receptor)

C[C@]12CC[C@H]3[C@@H](CCC4=CC(=O)CC[C@@H]43)[C@@H]1CC[C@@H]2O [NANDROLONE]
Not Active: IC50 [1] | Ki [1] | IC50 (Adenosine receptor A1) | IC50 [2] | IC50 [3] | IC50 (D(1A) dopamine receptor)

C[C@@H]1O[C@@H](O[C@H]2C[C@@H](O)[C@]3(CO)[C@H]4[C@H](O)C[C@]5(C)[C@@H](C6=CC(=O)OC6)CC[C@]5(O)[C@@H]4CC[C@]3(O)C2)[C@H](O)[C@H](O)[C@H]1O [OUABAIN]
Not Active: IC50 [1] | Ki [1] | IC50 (Adenosine receptor A1) | IC50 [2] | IC50 [3] | IC50 (D(1A) dopamine receptor)

COBALTOUS CHLORIDE
Not Active: IC50 [1] | Ki [1] | IC50 (Adenosine receptor A1) | Ki (Adenosine receptor A1) | IC50 [2] | Ki [2] | IC50 [3] | Ki [3] | IC50 (D(1A) dopamine receptor) | Ki (D(1A) dopamine receptor)

COLISTIN
Not Active: IC50 [1] | Ki [1] | IC50 (Adenosine receptor A1) | Ki (Adenosine receptor A1) | IC50 [2] | Ki [2] | IC50 [3] | Ki [3] | IC50 (D(1A) dopamine receptor) | Ki (D(1A) dopamine receptor)
